Tests used:
serum lipid = details: Kupiecki et al. 1968; cited from earlier work
blood sugar-level = details: Land et al. 1975; cited from earlier work
hypertriglyceridemia = test: Pharmacological test against hypertriglyceridemia (fructose-induced); format: in vivo; details: serum, male SD rats, oral 3 times, 300 mg/kg as free carboxylic acid, after 48 hours, 10% fructose
Experimental: (i) Pharmacological test against hypertriglyceridemia:
The groups were made to be hypertriglyceridemia by giving an aqueous 10% by weight solution of fructose for 2 days, those of control group being given tap water. The administration of six kinds of the present derivatives and of nicotinic acid was as follows:
Each specimen of the present pyrazole derivatives and nicotinic acid was dissolved or dispersed into an aqueous 1% solution of carboxymethylcellulose (CMC) at a predetermined concentration, and the thus prepared solution or dispersion was orally administered 3 times in the volume of 0.5 ml/100 g body weight, that is, first dose just after the commencement of the present test, second dose after 24 hours of the first administration and third dose after 18 hours of the second administration. The dose of each compound was set so that each animal intaked 300 mg/kg of each compound as free carboxylic acid. The rats of control group were given the aqueous 1% solution of CMC only three times at the same intervals as the test groups. All the groups were fed with the same diet during the test period.
After 48 hours of the commencement of the test, blood sample was collected from each animal by amputation of the carotid artery, and serum was separated from the blood sample and frozen to be kept until lipid analysis.
Serum triglyceride was determined by Acetylacetone Method, and the reduction percentage of lipid was calculated by the following formula: [formula] wherein the amount is the average of the group.
Analysis for serum cholesterol:
The content of serum cholesterol was determined by an enzymatic method using cholesteroloxidase, and the reduction percentage of cholesterol was calculated by the following formula: [formula]

hypercholesterolemia = test: Pharmacological test against hypercholesterolemia (high cholesterol diet); format: in vivo; details: male SD rats, oral 200 mg/kg/day for 7 days; for Reduction Percentage, Cholesterol in beta-lipoprotein: heparin-calcium precipitation
Text: (ii) Pharmacological test against hypercholesterolemia:
Three groups of male SD rats each weighing ca. 150 g, each group consisting of five rats were used as the test animals and one group consisting of 10 rats was used as control. All animals were fed a high cholesterol diet consisted of 1% cholesterol, 0.2% sodium cholate, 5% olive oil and commercial diet up to total 100% for 7 days. The test compounds of the present invention and clofibrate, as a medicine for comparison, were respectively dissolved or dispersed in an aqueous 1% solution of CMC so that the volume of the solution or dispersion administered to each animal was 0.5 ml/100 g body weight/time, and the solution or dispersion was orally administered so that the amount of administration of each of the present pyrazole derivative or clofibrate was 200 mg/kg body weight/time. Actually, the administration was carried out once a day for 7 consecutive days. Water was taken ad lib. After 20 hours of fasting from the last administration, blood sample was taken by amputation of the carotid artery and the serum separated was frozen until the analysis of cholesterol shown as follows:
The content of serum cholesterol was determined by the above-mentioned method. The beta-lipoprotein-cholesterol was determined by "heparin-calcium precipitation method". The reduction percentages of cholesterol in serum and beta-lipoprotein were calculated in the same manner as above.

patients = details: administration to patients; cited from earlier work

Structure (SMILES)	Reduction Percentage, Cholesterol (hypertriglyceridemia) [%]	Reduction Percentage, Triglyceride (hypertriglyceridemia) [%]	Reduction Percentage, Cholesterol in serum (hypercholesterolemia) [%]	Reduction Percentage, Cholesterol in beta-lipoprotein (hypercholesterolemia) [%]	other results
Cc1cc(C(=O)O)n[nH]1 [5-Methylpyrazol-3-carboxylic acid]					activity to reduce the level of serum lipid (serum lipid): activity to reduce the level of serum lipid; clinical effect in treatment of hyperlipemia (blood sugar-level): uncertainty of the derivative's clinical effect in treatment of hyperlipemia; side effect on blood sugar level (blood sugar-level): causing the reduction of blood sugar-level
CCCCCCCc1cc(C(=O)O)n[nH]1 [5-n-heptylpyrazole-3-carboxylic acid]	12.5	40.6			
CCCCCCCCCc1cc(C(=O)O)n[nH]1 [5-n-nonylpyrazole-3-carboxylic acid]	12.2	66.5	11.1	0.6	
CCCCCCCCCCCc1cc(C(=O)O)n[nH]1 [5-n-undecylpyrazole-3-carboxylic acid]	40.0	69.1	22.8	20.1	
CCOC(=O)C(C)(C)Oc1ccc(Cl)cc1 [Clofibrate, reference compound]			-3.5	-2.0	side effects (patients): causes the diseases in the bile duct system and is in danger of causing cancer
CCCCCCCc1cc(C(=O)OCC)n[nH]1 [Ethyl 5-n-heptylpyrazole-3-carboxylate, ethyl 5-n-heptylpyrazole-3-carboxylate]	2.1	41.1			
CCCCCCCCCc1cc(C(=O)OCC)n[nH]1 [Ethyl 5-n-nonylpyrazole-3-carboxylate, ethyl 5-n-nonylpyrazole-3-carboxylate]	29.5	63.1			
CCCCCCCCCCCc1cc(C(=O)OCC)n[nH]1 [Ethyl 5-n-undecylpyrazole-3-carboxylate, ethyl 5-n-undecylpyrazole-3-carboxylate]	53.1	83.7			
O=C(O)c1cccnc1 [nicotinic acid, reference compound]	16.4	24.1			side effects (patients): causing flushing or eruptions on the face and skin

Source: US4323576A, “Derivatives of pyrazole for use in therapy” (Morishita Pharmaceutical Co., Ltd., priority 1979, dated 1982)
